Experimental data taken from PubChem BioAssay (NCI).
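Where inhibition never reached the appropriate level, the endpoint shown equals the highest concentration tested. Otherwise, values were interpolated linearly from a five-concentration, 48-hour dose response in 96-well plates. TGI is the concentration that stops growth completely.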

Columns and labels:
Assay in all cases: NCI-60 cell line screen, 48 h
BT-549 breast = system: BT-549 breast
IGROV1 ovarian = system: IGROV1 ovarian
SN12C renal = system: SN12C renal
OVCAR-5 ovarian = system: OVCAR-5 ovarian
NCI-H522 lung = system: NCI-H522 lung
MDA-MB-435 = system: MDA-MB-435
OVCAR-3 ovarian = system: OVCAR-3 ovarian
MDA-MB-231 breast = system: MDA-MB-231 breast
HOP-18 NSCLC = system: HOP-18 NSCLC
M19-MEL melanoma = system: M19-MEL melanoma

| Structure (SMILES) | TGI (BT-549 breast) | TGI (IGROV1 ovarian) | TGI (SN12C renal) | TGI (OVCAR-5 ovarian) | TGI (NCI-H522 lung) | TGI (MDA-MB-435) | TGI (OVCAR-3 ovarian) | TGI (MDA-MB-231 breast) | TGI (HOP-18 NSCLC) | TGI (M19-MEL melanoma) |
| --- | --- | --- | --- | --- | --- | --- | --- | --- | --- | --- |
| COc1cc2c(c(OC)c1OC)C(=O)c1c(O)cc(C)c(OC)c1C2=O | > 100 µM | > 100 µM | > 100 µM | > 100 µM | > 100 µM | > 100 µM | > 100 µM | > 100 µM | – | – |
| CC(C)=CCC[C@@H](C)C1=C(O)C(N[C@H](C)c2ccccc2)=C(C)C(=O)C1=O | 67 µM | > 36.2 µM | 53.2 µM | > 72.1 µM | 8.67 µM | > 62.3 µM | > 100 µM | 35.6 µM | – | – |
| COC(=O)c1ccccc1CC1Cc2c(C)ccc(C)c2C1=O (stereo not given) | > 100 µM | > 100 µM | > 100 µM | > 100 µM | 58.1 µM | 59.7 µM | > 100 µM | > 100 µM | – | – |
| ClC1=NSSC1(Cl)Cl | > 100 µM | > 100 µM | 41.7 µM | 85 µM | 38.8 µM | > 100 µM | 64.5 µM | 71.2 µM | – | – |
| CC1=NN(c2nc(N)nc(CO)n2)C(C)(C)C1 | > 100 µM | > 100 µM | > 100 µM | > 100 µM | > 100 µM | > 100 µM | > 100 µM | > 100 µM | – | – |
| CO[C@@]12C[C@H](CNC(=O)c3ccc[nH]3)O[C@@H]1NC(=O)N2 | > 100 µM | > 100 µM | > 100 µM | > 100 µM | > 100 µM | > 100 µM | > 100 µM | > 100 µM | – | – |
| O=C(C[N+]12CN3CN(CN(C3)C1)C2)c1ccc(-c2ccccc2)cc1 | 71.7 µM | 66.5 µM | 45.1 µM | 37.6 µM | 38.2 µM | > 100 µM | 78.6 µM | 34.3 µM | – | – |
| COC1OC2COC(=O)c3cc(O)c(O)c(O)c3-c3c(cc(O)c(O)c3O)C(=O)OC2C(O)C1O (stereo not given) | > 100 µM | > 100 µM | 30.1 µM | > 100 µM | > 100 µM | 94.8 µM | > 100 µM | > 100 µM | – | – |
| CC(=O)OCC1OC(OCCCOP(=O)(OCCC#N)OCC2OC(n3cnc4c(N)ncnc43)C(OC(=O)c3ccccc3)C2OC(=O)c2ccccc2)C(OC(C)=O)C(OC(C)=O)C1OC(C)=O (stereo not given) | > 100 µM | > 100 µM | > 100 µM | > 100 µM | > 100 µM | > 100 µM | > 100 µM | > 100 µM | – | – |
| Nc1nc(Sc2ccc([N+](=O)[O-])c3nonc23)c2[nH]cnc2n1 | 18 µM | 17.1 µM | 27.2 µM | 17.3 µM | 2.44 µM | 12 µM | 13.8 µM | 13.7 µM | – | – |
| Brc1ccc2[nH]c3c(C4=NCCC4)nccc3c2c1 | – | > 78.7 µM | > 91.6 µM | > 29.7 µM | > 100 µM | – | > 100 µM | – | > 85.8 µM | 84.4 µM |
| O=C1NC(N2CCCC(CO)C2)=N/C1=C\c1cccs1 (stereo not given) | > 100 µM | > 100 µM | > 100 µM | > 100 µM | > 100 µM | > 100 µM | > 100 µM | > 100 µM | – | – |
